Experimental data published in patent publication US9850283B2, “Macrocyclic inhibitors of the PD-1/PD-L1 and CD80(B7-1)/PD-L1 protein/protein interactions” (BRISTOL-MYERS SQUIBB COMPANY, priority 2013, dated 2017).
Read-outs that look alike come from different tables or passages of the source. Positions of bridges follow the written chain, without caps; N, C: chain ends. Non-standard residues stand in square brackets, D forms with d. Residues, ends and D or L forms follow the SMILES beside them. ξ: configuration not given here. Hyp = O=C(O)[C@@H]1C[C@@H](O)CN1; NMeNle = CCCC[C@H](NC)C(=O)O; NMeM = CN[C@@H](CCSC)C(=O)O; NMeA = CN[C@@H](C)C(=O)O; Dab = NCC[C@H](N)C(=O)O; Dap = NC[C@H](N)C(=O)O; ξC = NC(CS)C(=O)O

How the values were obtained:
[1] = target: T1, LK35.2-hPD-L1 cells / PE-labeled PD-1-Ig (Homo sapiens, UniProt Q9NZQ7); assay: LK35.2-hPD-L1 cell binding high-content screening assay; format: cell-based; details: cell binding assay, cell line not given
T1 construct: expressed in transfected cells; host or cells: LK35.2 mouse B cell line
T1 sequence (Q9NZQ7 19-290): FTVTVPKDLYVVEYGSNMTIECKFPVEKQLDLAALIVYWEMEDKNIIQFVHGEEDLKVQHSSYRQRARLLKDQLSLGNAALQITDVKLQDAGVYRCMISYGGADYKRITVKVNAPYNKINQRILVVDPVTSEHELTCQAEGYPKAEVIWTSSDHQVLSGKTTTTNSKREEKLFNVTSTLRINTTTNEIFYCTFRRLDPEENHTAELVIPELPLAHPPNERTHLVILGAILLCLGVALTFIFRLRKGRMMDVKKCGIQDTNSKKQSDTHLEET
Outline: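 Mouse LK35.2 B cells stably over-expressing human PD-L1, cultured overnight, treated with compound plus PE-labeled human PD-1-Ig (1 nM final) in RPMI/10% FCS for 1 h at 37 °C. After washing, bound fluorescence quantified by high-content imaging.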

CMV-specific T cells = CMV-specific T cells (Homo sapiens, UniProt Q9NZQ7); assay: CMV-specific T cell function assay (IFNγ secretion, ELISA); format: cell-based
CMV-specific T cells, sequence (Q9NZQ7 19-290): as above
Method: CMV-specific T Cell Function Assay. […] AIM-V medium (Life Technologies, Grand Island, N.Y.) supplemented with 10% heat-inactivated fetal bovine serum (FBS, Sigma, St Louis, Mo.) was used at a total volume of 200 µL/well in triplicate. The cells were cultured for 4 days at 37° C., 5% CO2 at which time culture supernatant was harvested for determination of secreted IFNγ by ELISA (OptEIA hIFNγ ELISA Kit, BD Biosciences, San Jose, Calif.).

Human PD-L1/PD-1 = target: T2, Human PD-L1/PD-1 (Homo sapiens, UniProt Q9NZQ7); assay: HTRF PD-1-Ig/PD-L1-His binding assay (human PD-L1)
T2 construct: made in house; host or cells: HEK293T
T2 sequence (Q9NZQ7 with tags, fused parts or gaps): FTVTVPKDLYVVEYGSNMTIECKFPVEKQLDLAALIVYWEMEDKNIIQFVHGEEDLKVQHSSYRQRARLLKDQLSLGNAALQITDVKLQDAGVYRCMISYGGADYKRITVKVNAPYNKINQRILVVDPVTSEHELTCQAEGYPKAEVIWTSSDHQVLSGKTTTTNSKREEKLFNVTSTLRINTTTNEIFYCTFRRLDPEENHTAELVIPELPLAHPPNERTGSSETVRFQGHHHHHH
Outline: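 Soluble Fc-fused PD-1 and His-tagged PD-L1 (truncated before the transmembrane region) were combined in dPBS with 0.1% (w/v) BSA and 0.05% (v/v) Tween-20. Binding was read by HTRF using europium cryptate anti-Ig antibody (1 nM final) and APC anti-His antibody (20 nM final).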

[2] = value given instead of cluster, read-out: CBA IC50 value
[3] = value given instead of cluster, read-out: CMV Recall EC50 value
[4] = value given instead of cluster, read-out: HTRF IC50 value
[5] = numeric value, read-out: CBA IC50 values
[6] = numeric value, read-out: CMV Recall EC50 values
[7] = numeric value, read-out: HTRF IC50 values

| Structure (SMILES) | IC50 [1, 2] [nM] | EC50 (CMV-specific T cells; [3]) [nM] | IC50 (Human PD-L1/PD-1; [4]) [nM] | IC50 [1, 5] [nM] | EC50 (CMV-specific T cells; [6]) [nM] | IC50 (Human PD-L1/PD-1; [7]) [nM] |
| --- | --- | --- | --- | --- | --- | --- |
| CCCC[C@H]1C(=O)N(C)[C@@H](CCCC)C(=O)N[C@@H](CC(C)C)C(=O)N[C@H](C(=O)NCC(N)=O)CSCC(=O)N[C@@H](Cc2ccc(O)cc2)C(=O)N(C)[C@@H](C)C(=O)N[C@@H](CC(N)=O)C(=O)N2CCC[C@H]2C(=O)N[C@@H](CN)C(=O)N[C@@H](CCC(=O)O)C(=O)N2C[C@H](O)C[C@H]2C(=O)N[C@@H](Cc2c[nH]c3ccccc23)C(=O)N[C@@H](CCN)C(=O)N[C@@H](Cc2c[nH]c3ccccc23)C(=O)N1C [Example 5067] ({CH2CO}-Y[NMeA]NP[Dap]E[Hyp]W[Dab]W[NMeNle][NMeNle]LCG-NH2; thioether N-14) | 1.81 | 3.27 | 5.77 |  |  |  |
| CCCC[C@H]1C(=O)N(C)[C@@H](CCCC)C(=O)N[C@@H](CC(C)C)C(=O)N[C@H](C(=O)NCC(N)=O)CSCC(=O)N[C@@H](Cc2ccc(O)cc2)C(=O)N(C)[C@@H](C)C(=O)N[C@@H](CC(N)=O)C(=O)N2CCC[C@H]2C(=O)N[C@@H](CN)C(=O)N[C@@H](CCC(=O)O)C(=O)N2C[C@H](O)C[C@H]2C(=O)N[C@@H](Cc2c[nH]c3ccccc23)C(=O)N[C@@H](CO)C(=O)N[C@@H](Cc2c[nH]c3ccccc23)C(=O)N1C [Example 5071] ({CH2CO}-Y[NMeA]NP[Dap]E[Hyp]WSW[NMeNle][NMeNle]LCG-NH2; thioether N-14) | 1.01 | 14 | 10.5 |  |  |  |
| CCCC[C@H]1C(=O)N[C@@H](CCCNC(=N)N)C(=O)NC(C(=O)NCC(N)=O)CSCC(=O)N[C@@H](Cc2ccc(O)cc2)C(=O)N(C)[C@@H](C)C(=O)N[C@@H](CC(N)=O)C(=O)N2CCC[C@H]2C(=O)N[C@@H](CN)C(=O)N[C@@H](CC(C)C)C(=O)N2C[C@H](O)C[C@H]2C(=O)N[C@@H](Cc2c[nH]c3ccccc23)C(=O)N[C@@H](CO)C(=O)N[C@@H](Cc2c[nH]c3ccccc23)C(=O)N(C)[C@@H](CCSC)C(=O)N1C (stereo partly drawn) [Example 9091] ({CH2CO}-Y[NMeA]NP[Dap]L[Hyp]WSW[NMeM][NMeNle]R[ξC]G-NH2; thioether N-14) |  |  |  | 3.03 | 5.6 | 774 |
| CCCC[C@H]1C(=O)N(C)[C@@H](CCCC)C(=O)N[C@@H](CN)C(=O)N[C@H](C(=O)NCC(N)=O)CSCC(=O)N[C@@H](Cc2ccc(O)cc2)C(=O)N(C)[C@@H](C)C(=O)N[C@@H](CC(N)=O)C(=O)N2CCC[C@H]2C(=O)N[C@@H](Cc2cnc[nH]2)C(=O)N[C@@H](CCC(=O)O)C(=O)N2C[C@H](O)C[C@H]2C(=O)N[C@@H](Cc2c[nH]c3ccccc23)C(=O)N[C@@H](CO)C(=O)N[C@@H](Cc2c[nH]c3ccccc23)C(=O)N1C [Example 5062] ({CH2CO}-Y[NMeA]NPHE[Hyp]WSW[NMeNle][NMeNle][Dap]CG-NH2; thioether N-14) | 2.28 | 14.5 | 5.15 |  |  |  |
| CCCC[C@H]1C(=O)N(C)[C@@H](CCCC)C(=O)N[C@@H](CO)C(=O)N[C@H](C(=O)NCC(N)=O)CSCC(=O)N[C@@H](Cc2ccc(O)cc2)C(=O)N(C)[C@@H](C)C(=O)N[C@@H](CC(=O)O)C(=O)N2CCC[C@H]2C(=O)N[C@@H](CO)C(=O)N[C@@H](CO)C(=O)N2C[C@H](O)C[C@H]2C(=O)N[C@@H](Cc2c[nH]c3ccccc23)C(=O)N[C@@H](CO)C(=O)N[C@@H](Cc2c[nH]c3ccccc23)C(=O)N1C [Example 5117] ({CH2CO}-Y[NMeA]DPSS[Hyp]WSW[NMeNle][NMeNle]SCG-NH2; thioether N-14) | 6.75 | 103 | 5.33 |  |  |  |
| CCCC[C@H]1C(=O)N[C@@H](CCCNC(=N)N)C(=O)NC(C(=O)NCC(N)=O)CSCC(=O)N[C@@H](Cc2ccc(O)cc2)C(=O)N(C)[C@@H](C)C(=O)N[C@@H](CC(N)=O)C(=O)N2CCC[C@H]2C(=O)N[C@@H](Cc2cnc[nH]2)C(=O)N[C@@H](CC(C)C)C(=O)N2C[C@H](O)C[C@H]2C(=O)N[C@@H](Cc2c[nH]c3ccccc23)C(=O)N[C@@H](CO)C(=O)N[C@@H](Cc2c[nH]c3ccccc23)C(=O)N(C)[C@@H](C)C(=O)N1C (stereo partly drawn) [Example 9057] |  |  |  | 19.5 | 112 | 14.9 |
